Measurements reported in publication PMC10778198, “First-in-Human Dose-Escalation Study of the Novel Oral Depsipeptide Class I-Targeting HDAC Inhibitor Bocodepsin (OKI-179) in Patients with Advanced Solid Tumors” (Cancers, 2023).

Test system: patients with advanced solid tumors
Assay: phase I dose escalation: safety, DLT, MTD, RP2D (CTCAE v. 5)
Format: in vivo
Excerpt: Subsequent dosing cohorts were enrolled using a standard 3 + 3 design.
If any patient in any cohort of three patients developed a DLT during cycle 1, an additional three patients were recruited to expand the cohort to up to six evaluable patients. If two or more patients in any expanded cohort developed a DLT, this dose was considered non-tolerated, and dose escalation was discontinued. The MTD was defined as the highest dose level for which no more than one of six patients experienced a DLT.
Patients were continuously evaluated for adverse events throughout the study using the Common Terminology Criteria of Adverse Events (CTCAE v. 5). The patients underwent a clinical history and physical examination, an ECOG PS, a complete blood count (CBCs), chemistry, coagulation studies, urinalysis, a serum pregnancy test (as applicable), a triplicate ECG, an ophthalmology examination, and baseline tumor assessment at screening. During cycle 1, weekly history and physical examination, CBC, chemistry, coagulation parameters, urinalysis, and triplicate ECGs were performed; in subsequent cycles, weekly labs were limited to a CBC. Repeat ophthalmology examinations were performed at cycle 3, day 1, and at the end of treatment. Repeat tumor assessment was performed every 2 cycles (6 weeks) in accordance with RECIST 1.1.

[1] = 4:3 intermittent dosing schedule, all grades

## CC(C)[C@H](N)C(=O)SCC/C=C/[C@@H]1CC(=O)NCc2nc(cs2)C(=O)NC(C)(C)C(=O)N[C@@H](C(C)C)C(=O)O1 [OKI-179, Bocodepsin]
4:3, 350 mg (n = 3), G3
  TEAE: Hypokalaemia: 0 n (%)
  TEAE: Muscular weakness: 0 n (%)
  TEAE: Nasal congestion: 0 n (%)
  TEAE: Nausea: 0 n (%)
  TEAE: Platelet count decreased: 0 n (%)
  TEAE: Proteinuria: 0 n (%)
  TEAE: Pyrexia: 0 n (%)
  TEAE: Vomiting: 0 n (%)
  TEAE: Weight decreased: 0 n (%)
4:3, 450 mg (n = 6), G1
  TEAE: Anemia: 0 n (%)
  TEAE: Back pain: 2 (33) n (%)
  TEAE: Cough: 1 (17) n (%)
  TEAE: Decreased appetite: 1 (17) n (%)
  TEAE: Diarrhea: 0 n (%)
  TEAE: Dyspnea: 0 n (%)
  TEAE: ECG QT prolonged: 1 (17) n (%)
  TEAE: Fatigue: 0 n (%)
  TEAE: Headache: 1 (17) n (%)
  TEAE: Hypokalaemia: 0 n (%)
  TEAE: Muscular weakness: 0 n (%)
  TEAE: Nausea: 2 (33) n (%)
  TEAE: Platelet count decreased: 1 (17) n (%)
  TEAE: Proteinuria: 0 n (%)
  TEAE: Pyrexia: 1 (17) n (%)
  TEAE: Vomiting: 1 (17) n (%)
  TEAE: Weight decreased: 1 (17) n (%)
4:3, 450 mg (n = 6), G2
  TEAE: Anemia: 0 n (%)
  TEAE: Back pain: 0 n (%)
  TEAE: Cough: 0 n (%)
  TEAE: Decreased appetite: 1 (17) n (%)
  TEAE: Diarrhea: 0 n (%)
  TEAE: Dyspnea: 0 n (%)
  TEAE: ECG QT prolonged: 0 n (%)
  TEAE: Fatigue: 0 n (%)
  TEAE: Headache: 0 n (%)
  TEAE: Hypokalaemia: 1 (17) n (%)
  TEAE: Muscular weakness: 0 n (%)
  TEAE: Nasal congestion: 0 n (%)
  TEAE: Nausea: 3 (50) n (%)
  TEAE: Platelet count decreased: 2 (33) n (%)
  TEAE: Proteinuria: 3 (50) n (%)
  TEAE: Pyrexia: 0 n (%)
  TEAE: Vomiting: 0 n (%)
  TEAE: Weight decreased: 0 n (%)
4:3, 450 mg (n = 6), G3
  TEAE: Anemia: 2 (33) n (%)
  TEAE: Back pain: 0 n (%)
  TEAE: Cough: 0 n (%)
  TEAE: Decreased appetite: 0 n (%)
  TEAE: Diarrhea: 0 n (%)
  TEAE: Dyspnea: 0 n (%)
  TEAE: ECG QT prolonged: 1 (17) n (%)
  TEAE: Fatigue: 1 (17) n (%)
  TEAE: Headache: 0 n (%)
  TEAE: Hypokalaemia: 0 n (%)
  TEAE: Muscular weakness: 1 (17) n (%)
  TEAE: Nasal congestion: 0 n (%)
  TEAE: Nausea: 0 n (%)
  TEAE: Platelet count decreased: 0 n (%)
  TEAE: Proteinuria: 0 n (%)
  TEAE: Pyrexia: 0 n (%)
  TEAE: Vomiting: 0 n (%)
  TEAE: Weight decreased: 0 n (%)
[1]
  TEAE: Anemia: 40%
  TEAE: Diarrhea: 25%
  TEAE: Fatigue: 40%
  TEAE: Nausea: 63%
  TEAE: Vomiting: 30%
  TEAE: anorexia: 35%
  TEAE: decreased platelet count: 30%
4:3 schedule
  grade 3 TEAE: anemia: 25%
  grade 3 TEAE: fatigue: 15%
  grade 3 TEAE: prolonged QT: 15%
4:3 schedule, 450 mg
  grade 1 or 2 nausea: 83%
5:2, 300 mg (N=6), All grades
  TEAE: Abdominal pain: 1 (17) N (%)
  TEAE: Anemia: 2 (33) N (%)
  TEAE: Aspartate aminotransferase increased: 1 (17) N (%)
  TEAE: Back pain: 2 (33) N (%)
  TEAE: Bile duct stenosis: 1 (17) N (%)
  TEAE: Blood alkaline phosphatase increased: 1 (17) N (%)
  TEAE: Decreased appetite: 2 (33) N (%)
  TEAE: Dehydration: 1 (17) N (%)
  TEAE: Dysphagia: 1 (17) N (%)
  TEAE: ECG QT prolonged: 2 (33) N (%)
  TEAE: Enterococcal bacteremia: 1 (17) N (%)
  TEAE: Esophagitis: 1 (17) N (%)
  TEAE: Esophagoscopy: 1 (17) N (%)
  TEAE: Eye pain: 1 (17) N (%)
  TEAE: Fatigue: 4 (67) N (%)
  TEAE: Gastritis: 1 (17) N (%)
  TEAE: Hypomagnesaemia: 1 (17) N (%)
  TEAE: Myalgia: 1 (17) N (%)
  TEAE: Nausea: 5 (83) N (%)
  TEAE: Neutrophil count decreased: 1 (17) N (%)
  TEAE: Oropharyngeal pain: 1 (17) N (%)
  TEAE: Pain in extremity: 1 (17) N (%)
  TEAE: Paresthesia: 1 (17) N (%)
  TEAE: Platelet count decreased: 4 (67) N (%)
  TEAE: Pneumonitis: 1 (17) N (%)
  TEAE: Pneumothorax: 1 (17) N (%)
  TEAE: Vomiting: 3 (50) N (%)
5:2, 300 mg (N=6), G1
  TEAE: Abdominal pain: 0 N (%)
  TEAE: Anemia: 1 (17) N (%)
  TEAE: Aspartate aminotransferase increased: 1 (17) N (%)
  TEAE: Back pain: 1 (17) N (%)
  TEAE: Bile duct stenosis: 0 N (%)
  TEAE: Blood alkaline phosphatase increased: 1 (17) N (%)
  TEAE: Decreased appetite: 0 N (%)
  TEAE: Dehydration: 1 (17) N (%)
  TEAE: Dysphagia: 0 N (%)
  TEAE: ECG QT prolonged: 2 (33) N (%)
  TEAE: Enterococcal bacteremia: 0 N (%)
  TEAE: Esophagitis: 1 (17) N (%)
  TEAE: Esophagoscopy: 0 N (%)
  TEAE: Eye pain: 1 (17) N (%)
  TEAE: Fatigue: 1 (17) N (%)
  TEAE: Gastritis: 1 (17) N (%)
  TEAE: Hypomagnesaemia: 1 (17) N (%)
  TEAE: Myalgia: 1 (17) N (%)
  TEAE: Nausea: 4 (67) N (%)
  TEAE: Neutrophil count decreased: 1 (17) N (%)
  TEAE: Oropharyngeal pain: 0 N (%)
  TEAE: Pain in extremity: 0 N (%)
  TEAE: Paresthesia: 1 (17) N (%)
  TEAE: Platelet count decreased: 4 (67) N (%)
  TEAE: Pneumonitis: 0 N (%)
  TEAE: Pneumothorax: 0 N (%)
  TEAE: Vomiting: 2 (33) N (%)
5:2, 300 mg (N=6), G2
  TEAE: Abdominal pain: 1 (17) N (%)
  TEAE: Anemia: 0 N (%)
  TEAE: Aspartate aminotransferase increased: 0 N (%)
  TEAE: Back pain: 0 N (%)
  TEAE: Bile duct stenosis: 0 N (%)
  TEAE: Blood alkaline phosphatase increased: 0 N (%)
  TEAE: Decreased appetite: 1 (17) N (%)
  TEAE: Dehydration: 0 N (%)
  TEAE: Dysphagia: 1 (17) N (%)
  TEAE: ECG QT prolonged: 0 N (%)
  TEAE: Enterococcal bacteremia: 0 N (%)
  TEAE: Esophagitis: 0 N (%)
  TEAE: Esophagoscopy: 1 (17) N (%)
  TEAE: Eye pain: 0 N (%)
  TEAE: Fatigue: 3 (50) N (%)
  TEAE: Gastritis: 0 N (%)
  TEAE: Hypomagnesaemia: 0 N (%)
  TEAE: Myalgia: 0 N (%)
  TEAE: Nausea: 0 N (%)
  TEAE: Neutrophil count decreased: 0 N (%)
  TEAE: Oropharyngeal pain: 1 (17) N (%)
  TEAE: Pain in extremity: 1 (17) N (%)
  TEAE: Paresthesia: 0 N (%)
